From ChEMBL document CHEMBL1139296, “Pleuromutilin derivatives having a purine ring. Part 2: influence of the central spacer on the antibacterial activity against Gram-positive pathogens” (2009)

Key:
Type in all cases: functional
Streptococcus pneumoniae [1] = experiment: Antimicrobial activity against penicillin-susceptible Streptococcus pneumoniae ATCC 49619 by NCCLS method
Haemophilus influenzae = experiment: Antimicrobial activity against Haemophilus influenzae TH13 by NCCLS method
Moraxella catarrhalis = experiment: Antimicrobial activity against Moraxella catarrhalis K1209 by NCCLS method
Staphylococcus aureus [2] = experiment: Antimicrobial activity against methicillin-susceptible Staphylococcus aureus Smith by NCCLS method
Streptococcus pyogenes = experiment: Antimicrobial activity against Streptococcus pyogenes […] by NCCLS method
Enterococcus faecium = experiment: Antimicrobial activity against vancomycin-resistant Enterococcus faecium KU1778 by NCCLS method
Staphylococcus aureus [3] = experiment: Antimicrobial activity against methicillin-susceptible Staphylococcus aureus infected mouse assessed as survival rate administered iv after 1 hr of infection
Staphylococcus aureus [4] = experiment: Antimicrobial activity against methicillin-resistant Staphylococcus aureus KMP9
Streptococcus pneumoniae [5] = experiment: Antimicrobial activity against penicillin-resistant Streptococcus pneumoniae KT2524 by NCCLS method

Structure (SMILES)	MIC (Streptococcus pneumoniae [1])	MIC (Haemophilus influenzae)	MIC (Moraxella catarrhalis)	MIC (Staphylococcus aureus [2])	MIC (Streptococcus pyogenes)	MIC (Enterococcus faecium)	ED50 (Staphylococcus aureus [3])	MIC (Staphylococcus aureus [4])	MIC (Streptococcus pneumoniae [5])
C=C[C@]1(C)C[C@@H](OC(=O)CN2CCN(C(=O)CCn3cnc4c(N5CCC(N)C5)ncnc43)CC2)[C@]2(C)[C@H](C)CC[C@]3(CCC(=O)[C@@H]32)[C@@H](C)[C@@H]1O.Cl.Cl (some centres not stated)	0.063 µg/mL	4 µg/mL	0.25 µg/mL	0.25 µg/mL	0.032 µg/mL	0.5 µg/mL	0.8 mg/kg	0.5 µg/mL	0.063 µg/mL
C=C[C@]1(C)C[C@@H](OC(=O)CN(C)CCN(C)C(=O)CCn2cnc3c(N4CCC(N)C4)ncnc32)[C@]2(C)[C@H](C)CC[C@]3(CCC(=O)[C@@H]32)[C@@H](C)[C@@H]1O.Cl.Cl (some centres not stated)	0.063 µg/mL	8 µg/mL	0.25 µg/mL	1 µg/mL	0.063 µg/mL	1 µg/mL	> 3.13 mg/kg	4 µg/mL	0.125 µg/mL
C=C[C@]1(C)C[C@@H](OC(=O)CSC2CCCN(C(=O)CCn3cnc4c(N5CCNCC5)nc(N)nc43)C2)[C@]2(C)[C@H](C)CC[C@]3(CCC(=O)[C@@H]32)[C@@H](C)[C@@H]1O.Cl (some centres not stated)	0.032 µg/mL	2 µg/mL	0.125 µg/mL	0.5 µg/mL	0.016 µg/mL	0.25 µg/mL	3.13 mg/kg	1 µg/mL	0.032 µg/mL
C=C[C@]1(C)C[C@@H](OC(=O)CSCC2CN(C(=O)CCn3cnc4c(N5CCNCC5)nc(N)nc43)CCO2)[C@]2(C)[C@H](C)CC[C@]3(CCC(=O)[C@@H]32)[C@@H](C)[C@@H]1O.Cl (some centres not stated)	0.063 µg/mL	8 µg/mL	0.25 µg/mL	1 µg/mL	0.032 µg/mL	0.5 µg/mL	4.81 mg/kg	2 µg/mL	0.125 µg/mL
C=C[C@]1(C)C[C@@H](OC(=O)CS[C@@H]2CCN(C(=O)CCn3cnc4c(N5CCNCC5)nc(N)nc43)C2)[C@]2(C)[C@H](C)CC[C@]3(CCC(=O)[C@@H]32)[C@@H](C)[C@@H]1O.Cl	0.063 µg/mL	2 µg/mL	0.25 µg/mL	0.05 µg/mL	0.032 µg/mL	0.5 µg/mL	1.28 mg/kg	2 µg/mL	0.125 µg/mL
C=C[C@]1(C)C[C@@H](OC(=O)CSCCN(C)C(=O)CCn2cnc3c(N4CCC(N)C4)ncnc32)[C@]2(C)[C@H](C)CC[C@]3(CCC(=O)[C@@H]32)[C@@H](C)[C@@H]1O.Cl (some centres not stated)	0.016 µg/mL	2 µg/mL	0.125 µg/mL	0.25 µg/mL	≤ 0.004 µg/mL	0.063 µg/mL	1.76 mg/kg	0.5 µg/mL	0.016 µg/mL
C=C[C@]1(C)C[C@@H](OC(=O)CSC2CCN(C(=O)CCn3cnc4c(N5CCNCC5)nc(N)nc43)CC2)[C@]2(C)[C@H](C)CC[C@]3(CCC(=O)[C@@H]32)[C@@H](C)[C@@H]1O.Cl	0.063 µg/mL	1 µg/mL	0.25 µg/mL	0.25 µg/mL	0.032 µg/mL	0.125 µg/mL	1.86 mg/kg	0.5 µg/mL	0.063 µg/mL
CC[C@]1(C)C[C@@H](OC(=O)CS(=O)(=O)C2CCN(C(=O)CCn3cnc4c(N5CCC(N)C5)ncnc43)CC2)[C@]2(C)[C@H](C)CC[C@]3(CCC(=O)[C@@H]32)[C@@H](C)[C@@H]1O.Cl (some centres not stated)	0.063 µg/mL	4 µg/mL	0.125 µg/mL	0.5 µg/mL	0.032 µg/mL	1 µg/mL	1.79 mg/kg	2 µg/mL	0.125 µg/mL
C=C[C@]1(C)C[C@@H](OC(=O)CS[C@H]2CCN(C(=O)CCn3cnc4c(N5CCNCC5)nc(N)nc43)C2)[C@]2(C)[C@H](C)CC[C@]3(CCC(=O)[C@@H]32)[C@@H](C)[C@@H]1O.Cl	0.063 µg/mL	2 µg/mL	0.25 µg/mL	0.5 µg/mL	0.016 µg/mL	0.25 µg/mL	3.16 mg/kg	1 µg/mL	0.125 µg/mL
C=C[C@]1(C)C[C@@H](OC(=O)CNC2CCN(C(=O)CCn3cnc4c(N5CCC(N)C5)ncnc43)CC2)[C@]2(C)[C@H](C)CC[C@]3(CCC(=O)[C@@H]32)[C@@H](C)[C@@H]1O.Cl (some centres not stated)	0.125 µg/mL	2 µg/mL	0.25 µg/mL	0.25 µg/mL	0.063 µg/mL	0.5 µg/mL	1.75 mg/kg	2 µg/mL	0.125 µg/mL
C=C[C@]1(C)C[C@@H](OC(=O)CSCCCN(C)C(=O)CCn2cnc3c(N4CCC(N)C4)ncnc32)[C@]2(C)[C@H](C)CC[C@]3(CCC(=O)[C@@H]32)[C@@H](C)[C@@H]1O.Cl (some centres not stated)	0.016 µg/mL	1 µg/mL	0.063 µg/mL	0.125 µg/mL	0.008 µg/mL	0.063 µg/mL	0.86 mg/kg	0.25 µg/mL	0.016 µg/mL
C=C[C@]1(C)C[C@@H](OC(=O)CSCC2CCN(C(=O)CCn3cnc4c(N5CCNCC5)nc(N)nc43)CC2)[C@]2(C)[C@H](C)CC[C@]3(CCC(=O)[C@@H]32)[C@@H](C)[C@@H]1O.Cl	0.032 µg/mL	4 µg/mL	0.125 µg/mL	0.25 µg/mL	0.016 µg/mL	0.063 µg/mL	2.77 mg/kg	0.5 µg/mL	0.032 µg/mL
C=C[C@]1(C)C[C@@H](OC(=O)CSC2CCN(C(=O)CCn3cnc4c(N5CCC(N)C5)ncnc43)CC2)[C@]2(C)[C@H](C)CC[C@]3(CCC(=O)[C@@H]32)[C@@H](C)[C@@H]1O.Cl (some centres not stated)	0.016 µg/mL	1 µg/mL	0.032 µg/mL	0.063 µg/mL	0.016 µg/mL	0.032 µg/mL	1.47 mg/kg	0.125 µg/mL	0.032 µg/mL
CC[C@]1(C)C[C@@H](OC(=O)CSC2CCN(C(=O)CCn3cnc4c(N5CCNCC5)nc(N)nc43)CC2)[C@]2(C)[C@H](C)CC[C@]3(CCC(=O)[C@@H]32)[C@@H](C)[C@@H]1O.Cl	0.063 µg/mL	1 µg/mL	0.125 µg/mL	0.25 µg/mL	0.032 µg/mL	0.125 µg/mL	1.66 mg/kg	0.25 µg/mL	0.063 µg/mL
C=C[C@]1(C)C[C@@H](OC(=O)CSC2CN(C(=O)CCn3cnc4c(N5CCNCC5)nc(N)nc43)C2)[C@]2(C)[C@H](C)CC[C@]3(CCC(=O)[C@@H]32)[C@@H](C)[C@@H]1O.Cl	0.125 µg/mL	2 µg/mL	0.125 µg/mL	0.5 µg/mL	≤ 0.004 µg/mL	0.5 µg/mL	4.07 mg/kg	2 µg/mL	0.25 µg/mL
C=C[C@]1(C)C[C@@H](OC(=O)CSC2CCCN(C(=O)CCn3cnc4c(N5CCC(N)C5)ncnc43)C2)[C@]2(C)[C@H](C)CC[C@]3(CCC(=O)[C@@H]32)[C@@H](C)[C@@H]1O.Cl (some centres not stated)	0.016 µg/mL	2 µg/mL	0.063 µg/mL	0.25 µg/mL	0.008 µg/mL	0.063 µg/mL	2.02 mg/kg	0.5 µg/mL	0.016 µg/mL
C=C[C@]1(C)C[C@@H](OC(=O)CSC2CCN(C(=O)CCn3cnc4c(N5CCNCC5)nc(N)nc43)C2)[C@]2(C)[C@H](C)CC[C@]3(CCC(=O)[C@@H]32)[C@@H](C)[C@@H]1O.Cl (some centres not stated)	0.063 µg/mL	1 µg/mL	0.125 µg/mL	0.25 µg/mL	≤ 0.004 µg/mL	0.25 µg/mL	2.61 mg/kg	1 µg/mL	0.125 µg/mL
CC[C@]1(C)C[C@@H](OC(=O)COC2CCN(C(=O)CCn3cnc4c(N5CCC(N)C5)ncnc43)CC2)[C@]2(C)[C@H](C)CC[C@]3(CCC(=O)[C@@H]32)[C@@H](C)[C@@H]1O.Cl (some centres not stated)	0.032 µg/mL	4 µg/mL	0.125 µg/mL	0.25 µg/mL	0.032 µg/mL	0.125 µg/mL	2.04 mg/kg	0.5 µg/mL	0.063 µg/mL
